This is an account of results in publication PMC8082450, “Protein Serine/Threonine Phosphatase Type 2C of Leishmania mexicana” (Frontiers in Cellular and Infection Microbiology, 2021).

The test has as its target T1, LmxPP2C (Leishmania mexicana, UniProt E9AXF3).
T1 construct: gene LMXM_25_0750
T1 sequence (E9AXF3 1-406): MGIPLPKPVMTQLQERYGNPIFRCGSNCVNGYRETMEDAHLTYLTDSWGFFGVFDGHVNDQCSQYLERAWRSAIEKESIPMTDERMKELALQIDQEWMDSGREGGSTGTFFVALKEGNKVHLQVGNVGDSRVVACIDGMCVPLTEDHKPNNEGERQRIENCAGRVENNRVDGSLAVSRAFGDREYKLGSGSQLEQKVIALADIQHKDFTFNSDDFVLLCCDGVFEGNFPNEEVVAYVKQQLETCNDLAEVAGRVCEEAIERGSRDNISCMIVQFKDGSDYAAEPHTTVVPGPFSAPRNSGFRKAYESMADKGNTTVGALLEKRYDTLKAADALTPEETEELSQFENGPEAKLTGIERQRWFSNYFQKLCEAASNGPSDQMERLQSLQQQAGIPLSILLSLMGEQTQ
Kind of test: phosphatase inhibition assay, p-NPP hydrolysis at […] nm. Type of test: biochemical.

For orientation: inhibition means the percentage by which the read-out fell short of the control. On to `COC[C@@H]([C@H](O)[C@H](O)C(=O)NCC[C@H](C)c1nc(/C=C/C[C@@H]2O[C@]3(C[C@@H](O)[C@@H]2C)O[C@H]([C@H](C[C@H](O)[C@H](C)[C@H](O)[C@H](C)/C=C(C)/C(C)=C/C=C/C(C)=C\C#N)OC)[C@H](OP(=O)(O)O)C3(C)C)co1)N(C)C` [calyculin], for which the inhibition at 0.005 µM (read-out: % inhibition at 5 nM) was 18%.
`C=C1[C@@H](O)[C@@H]2O[C@]3(CC[C@H](/C=C/[C@@H](C)[C@@H]4CC(C)=C[C@@]5(O[C@H](C[C@@](C)(O)C(=O)O)CC[C@H]5O)O4)O3)CC[C@H]2O[C@@H]1[C@@H](O)C[C@H](C)[C@H]1O[C@@]2(CCCCO2)CC[C@H]1C` [okadaic acid]: the inhibition at 1 µM (read-out: % inhibition at 1 μM) amounted to 14%.
The compound `C[n+]1cc2c3c(ccc2c2ccc4cc5c(cc4c21)OCO5)OCO3` [sanguinarine] gave an inhibition at 20 µM of 81%.
